Source: ChEMBL document CHEMBL4033677, “Design and synthesis of pyrazolo[3,4-d]pyrimidines: Nitric oxide releasing compounds targeting hepatocellular carcinoma” (Bioorg Med Chem, 2017)

Columns and labels:
Format in all cases: functional
[1] = test system: HCT-116; experiment: Growth inhibition of human HCT116 cells assessed as cell growth at 10^-5 M incubated for 48 hrs by sulforhodamine B assay relative to control; conditions: HCT-116, 48 h, read-out: Activity
[2] = test system: SK-OV-3; experiment: Growth inhibition of human SKOV3 cells assessed as cell growth at 10^-5 M incubated for 48 hrs by sulforhodamine B assay relative to control; conditions: SK-OV-3, 48 h, read-out: Activity
[3] = test system: A549; experiment: Growth inhibition of human A549/ATCC cells assessed as cell growth at 10^-5 M incubated for 48 hrs by sulforhodamine B assay relative to control; conditions: A549, 48 h, read-out: Activity
[4] = test system: TK-10; experiment: Growth inhibition of human TK10 cells assessed as cell growth at 10^-5 M incubated for 48 hrs by sulforhodamine B assay relative to control; conditions: TK-10, 48 h, read-out: Activity
[5] = test system: SNB-75; experiment: Growth inhibition of human SNB75 cells assessed as cell growth at 10^-5 M incubated for 48 hrs by sulforhodamine B assay relative to control; conditions: SNB-75, 48 h, read-out: Activity
[6] = test system: NCI-H522; experiment: Growth inhibition of human NCI-H522 cells assessed as cell growth at 10^-5 M incubated for 48 hrs by sulforhodamine B assay relative to control; conditions: NCI-H522, 48 h, read-out: Activity
[7] = test system: HCC 2998; experiment: Growth inhibition of human HCC2998 cells assessed as cell growth at 10^-5 M incubated for 48 hrs by sulforhodamine B assay relative to control; conditions: HCC 2998, 48 h, read-out: Activity
[8] = test system: Hs-578T; experiment: Growth inhibition of human Hs 578T cells assessed as cell growth at 10^-5 M incubated for 48 hrs by sulforhodamine B assay relative to control; conditions: read-out: Activity
[9] = test system: UACC-62; experiment: Growth inhibition of human UACC62 cells assessed as cell growth at 10^-5 M incubated for 48 hrs by sulforhodamine B assay relative to control; conditions: UACC-62, 48 h, read-out: Activity
[10] = test system: DU-145; experiment: Growth inhibition of human DU145 cells assessed as cell growth at 10^-5 M incubated for 48 hrs by sulforhodamine B assay relative to control; conditions: DU-145, 48 h, read-out: Activity
[11] = test system: NCI-H226; experiment: Growth inhibition of human NCI-H226 cells assessed as cell growth at 10^-5 M incubated for 48 hrs by sulforhodamine B assay relative to control; conditions: NCI-H226, 48 h, read-out: Activity
[12] = test system: SF-268; experiment: Growth inhibition of human SF268 cells assessed as cell growth at 10^-5 M incubated for 48 hrs by sulforhodamine B assay relative to control; conditions: SF-268, 48 h, read-out: Activity
[13] = test system: OVCAR-3; experiment: Growth inhibition of human OVCAR3 cells assessed as cell growth at 10^-5 M incubated for 48 hrs by sulforhodamine B assay relative to control; conditions: OVCAR-3, 48 h, read-out: Activity
[14] = test system: EKVX; experiment: Growth inhibition of human EKVX cells assessed as cell growth at 10^-5 M incubated for 48 hrs by sulforhodamine B assay relative to control; conditions: read-out: Activity
[15] = test system: M14; experiment: Growth inhibition of human M14 cells assessed as cell growth at 10^-5 M incubated for 48 hrs by sulforhodamine B assay relative to control; conditions: M14, 48 h, read-out: Activity
[16] = test system: HT-29; experiment: Growth inhibition of human HT-29 cells assessed as cell growth at 10^-5 M incubated for 48 hrs by sulforhodamine B assay relative to control; conditions: HT-29, 48 h, read-out: Activity
[17] = test system: SN12C; experiment: Growth inhibition of human SN12C cells assessed as cell growth at 10^-5 M incubated for 48 hrs by sulforhodamine B assay relative to control; conditions: read-out: Activity
[18] = test system: BT-549; experiment: Growth inhibition of human BT549 cells assessed as cell growth at 10^-5 M incubated for 48 hrs by sulforhodamine B assay relative to control; conditions: BT-549, 48 h, read-out: Activity
[19] = test system: Malme-3M; experiment: Growth inhibition of human MALME-3M cells assessed as cell growth at 10^-5 M incubated for 48 hrs by sulforhodamine B assay relative to control; conditions: read-out: Activity
[20] = test system: SF-539; experiment: Growth inhibition of human SF539 cells assessed as cell growth at 10^-5 M incubated for 48 hrs by sulforhodamine B assay relative to control; conditions: SF-539, 48 h, read-out: Activity
[21] = test system: U-251; experiment: Growth inhibition of human U251 cells assessed as cell growth at 10^-5 M incubated for 48 hrs by sulforhodamine B assay relative to control; conditions: U-251, 48 h, read-out: Activity
[22] = test system: NCI-H460; experiment: Growth inhibition of human NCI-H460 cells assessed as cell growth at 10^-5 M incubated for 48 hrs by sulforhodamine B assay relative to control; conditions: NCI-H460, 48 h, read-out: Activity
[23] = test system: RXF 393; experiment: Growth inhibition of human RXF393 cells assessed as cell growth at 10^-5 M incubated for 48 hrs by sulforhodamine B assay relative to control; conditions: RXF 393, 48 h, read-out: Activity
[24] = test system: SK-MEL-28; experiment: Growth inhibition of human SK-MEL-28 cells assessed as cell growth at 10^-5 M incubated for 48 hrs by sulforhodamine B assay relative to control; conditions: SK-MEL-28, 48 h, read-out: Activity
[25] = test system: KM12; experiment: Growth inhibition of human KM12 cells assessed as cell growth at 10^-5 M incubated for 48 hrs by sulforhodamine B assay relative to control; conditions: KM12, 48 h, read-out: Activity
[26] = test system: LOX IMVI; experiment: Growth inhibition of human LOXIMVI cells assessed as cell growth at 10^-5 M incubated for 48 hrs by sulforhodamine B assay relative to control; conditions: read-out: Activity
[27] = test system: T47D; experiment: Growth inhibition of human T47D cells assessed as cell growth at 10^-5 M incubated for 48 hrs by sulforhodamine B assay relative to control; conditions: read-out: Activity
[28] = test system: UACC-257; experiment: Growth inhibition of human UACC257 cells assessed as cell growth at 10^-5 M incubated for 48 hrs by sulforhodamine B assay relative to control; conditions: UACC-257, 48 h, read-out: Activity
[29] = test system: HCT-15; experiment: Growth inhibition of human HCT15 cells assessed as cell growth at 10^-5 M incubated for 48 hrs by sulforhodamine B assay relative to control; conditions: HCT-15, 48 h, read-out: Activity
[30] = test system: OVCAR-4; experiment: Growth inhibition of human OVCAR4 cells assessed as cell growth at 10^-5 M incubated for 48 hrs by sulforhodamine B assay relative to control; conditions: OVCAR-4, 48 h, read-out: Activity
[31] = test system: MDA-MB-231; experiment: Growth inhibition of human MDA-MB-231 cells assessed as cell growth at 10^-5 M incubated for 48 hrs by sulforhodamine B assay relative to control; conditions: MDA-MB-231, 48 h, read-out: Activity
[32] = test system: HL-60(TB); experiment: Growth inhibition of human HL-60(TB) cells assessed as cell growth at 10^-5 M incubated for 48 hrs by sulforhodamine B assay relative to control; conditions: HL-60, 48 h, read-out: Activity
[33] = test system: SR; experiment: Growth inhibition of human SR cells assessed as cell growth at 10^-5 M incubated for 48 hrs by sulforhodamine B assay relative to control; conditions: read-out: Activity

Row | Compound | growth at 10 µM [1] [%] | growth at 10 µM [2] [%] | growth at 10 µM [3] [%] | growth at 10 µM [4] [%] | growth at 10 µM [5] [%] | growth at 10 µM [6] [%] | growth at 10 µM [7] [%] | growth at 10 µM [8] [%] | growth at 10 µM [9] [%] | growth at 10 µM [10] [%] | growth at 10 µM [11] [%] | growth at 10 µM [12] [%] | growth at 10 µM [13] [%] | growth at 10 µM [14] [%] | growth at 10 µM [15] [%] | growth at 10 µM [16] [%] | growth at 10 µM [17] [%] | growth at 10 µM [18] [%] | growth at 10 µM [19] [%] | growth at 10 µM [20] [%] | further results
1 | Cc1nc(Nc2ccc(OCCCBr)cc2)c2cnn(-c3ccccc3)c2n1 | 67.2 | 82.9 | 72.2 | 113 | 88.7 | 81.6 | 103 | 82.6 | 86.2 | 106 | 81.1 | 86.9 | 106 | 76.5 | 94.5 | 96.6 | 91.8 | 92.9 | 98.2 | 92.5 | growth at 10 µM [21]: 81.4%; growth at 10 µM [22]: 95.1%; growth at 10 µM [23]: 104%; growth at 10 µM [24]: 107%; growth at 10 µM [25]: 98.3%; growth at 10 µM [26]: 94.6%; growth at 10 µM [27]: 83.6%; growth at 10 µM [28]: 94.4%; growth at 10 µM [29]: 99.2%; growth at 10 µM [30]: 94.3%; growth at 10 µM [31]: 80.4%; growth at 10 µM [32]: 97.6%; growth at 10 µM [33]: 85.2%
2 | BrCCCOc1ccc(Nc2ncnc3c2cnn3-c2ccccc2)cc1 | 96.7 | 90.2 | 90.7 | 128 | 93.3 | 78.4 | 108 | 101 | 91.4 | 108 | 84.1 | 86 | 97 | 83.2 | 100 | 99.4 | 94 | 93.4 | 112 | 92.5 | growth at 10 µM [21]: 94.6%; growth at 10 µM [22]: 107%; growth at 10 µM [23]: 105%; growth at 10 µM [24]: 107%; growth at 10 µM [25]: 88.9%; growth at 10 µM [26]: 98.1%; growth at 10 µM [27]: 84.2%; growth at 10 µM [28]: 109%; growth at 10 µM [29]: 59.2%; growth at 10 µM [30]: 93.3%; growth at 10 µM [31]: 96.9%; growth at 10 µM [32]: 95.8%; growth at 10 µM [33]: 82.6%
3 | Cc1nc(Nc2ccc(OCCCBr)cc2)c2c(C)nn(-c3ccccc3)c2n1 | 81.3 | 96 | 78.7 | 94.5 | 105 | 76.1 | 107 | 97.3 | 83 | 109 | 90 | 93.8 | 107 | 90.9 | 94 | 93.7 | 78.8 | 91.6 | 107 | 98.3 | growth at 10 µM [21]: 90.5%; growth at 10 µM [22]: 113%; growth at 10 µM [23]: 97.9%; growth at 10 µM [24]: 105%; growth at 10 µM [25]: 96.6%; growth at 10 µM [26]: 98.3%; growth at 10 µM [27]: 83.5%; growth at 10 µM [28]: 93.3%; growth at 10 µM [29]: 94%; growth at 10 µM [30]: 99.5%; growth at 10 µM [31]: 94%; growth at 10 µM [32]: 96.2%; growth at 10 µM [33]: 74.6%
4 | Cc1nn(-c2ccccc2)c2ncnc(Nc3ccc(OCCCBr)cc3)c12 | 81.5 | 81 | 60.9 | 89.9 | 115 | 45.6 | 107 | 111 | 89.3 | 108 | 101 | 103 | 103 | 92.5 | 91.3 | 58.2 | 95.2 | 97.8 | 106 | 96 | growth at 10 µM [21]: 89%; growth at 10 µM [22]: 123%; growth at 10 µM [23]: 102%; growth at 10 µM [24]: 101%; growth at 10 µM [25]: 99.6%; growth at 10 µM [26]: 106%; growth at 10 µM [27]: 84.8%; growth at 10 µM [28]: 84.8%; growth at 10 µM [29]: 90%; growth at 10 µM [30]: 99.6%; growth at 10 µM [31]: 87.4%; growth at 10 µM [32]: 104%; growth at 10 µM [33]: 81.4%
